# PMC8381248 (Frontiers in Pharmacology, 2021)
# Where “and” joins values, the source holds several entries; their conditions need not be identical. Identical values can stand only once. Like-named read-outs stand apart in the source and are kept apart here.
# Assays:
# in vitro [1] = conditions: PAMPA
# Procedure: Verapamil and digoxin solutions, used as reference, prepared in the same manner as the test drugs. Tolbutamide dissolved with acetonitrile (200 ng/ml) was used as IS.
# The resultant supernatants were determined by LC-MS/MS. The specific assay conditions are shown in Support Materials (Supplementary Table S2).
# [2] = Plasma protein binding rate, rapid equilibrium dialysis, human plasma; assay type: in vitro ADME; conditions: 37°C
# Procedure: (§1) In brief, the unbound drugs (or references) were separated from plasma (human and rat) in a 96-well plate with a semipermeable membrane through which only unbound drug can permeate. The equilibrium unit was sealed and incubated at 37°C in a mixer at 100 rpm for 4 h.
# (§2) Then, 50 ng/ml of midazolam and 50 ng/ml of tolbutamide (in acetonitrile) were used as IS.
# (§3) After reaching equilibrium, the concentrations of the samples in both the plasma and the buffer compartment were determined. According to the specification, the resultant supernatant was collected, properly diluted by distilled water, vortexed for 10 min, and finally analyzed using LC-MS/MS. All the samples (PDG, PINL, diclofenac, and propranolol) for detection were prepared in duplicate.
# (§4) The concentrations of the samples were determined by internal standard methods, in which the data were acquired and analyzed by Analyst 1.6.1 software station (AB Sciex Corporation, Boston, MA, United States). The equation of plasma protein binding rate is calculated as follows: Free drug rate (%)=CB/CA×100% (3) Plasma protein binding rate (%)=100%−Free drug rate(%) (4) C B is the drug concentration in dialysis chamber, and C A is the drug concentration in the sample chamber.
# [3] = Plasma protein binding rate, rapid equilibrium dialysis, rat plasma; assay type: in vitro ADME; conditions: 37°C
# Procedure: as §1, §2, §3, §4
# in vitro [4] = conditions: microsomes
# Procedure: Then, this incubation plate containing mixed solution and NADPH regeneration system was agitated on a plate shaker at 100 rpm and pre-incubated at 37°C for 5 min. Subsequently, 300 μL of precooled quenching solution was added to each well of another deep-well plate (quench plate), which was cooled on ice. The solution in the incubation plate was transferred into the well of the quench plate as the samples in 0 min before it was mixed with another 20 µL of NADPH regeneration solution in the wells.
# The incubation plate was incubated at 37°C for 0, 10, 30, and 90 min. At each time point, 100 μL of the supernatant in the incubation plate was removed from each well, quenched immediately, transferred to the wells of the ice-cold quench plate, and vortexed for 5 min. Additionally, an equal volume of pre-warmed fresh regeneration solution was added to the incubation plate for compensation after every withdrawal. […] Each test was operated in duplicate. The determination conditions of LC-MS/MS are shown in Support Materials (Supplementary Table S4).
# The in vitro T1/2 was determined by converting the analyte/IS peak area ratios to percentage of drug remaining using the initial peak (t = 0 min) area ratio values as 100%.
# [5] = Pharmacokinetic study in rat plasma after intravenous and oral administration; assay type: in vivo, Sprague-Dawley (SD) rats; conditions: for Cmax / AUC(0-t) / Tmax / AUC(0-inf) / MRT inf / Cl_pred / HL_Lambda_z / Vz_pred: rat plasma; for AUC(0-inf): read-out: AUCINF_pred; for MRT inf: read-out: MRTINF_pred
# Procedure: Eighteen male SD rats were housed in the barrier rodent facilities to acclimatize for a week in animal quarters, which had air conditioning and an automatically controlled photoperiod of 12 h of light daily. Rats had free access to standard chow diet and water until 12 h prior to the beginning of the experiment, at which time only water was accessed freely. The rats were randomly divided into six groups, with three rats in each group.
# A series of calibration standard working solutions (20.0, 10.0, 2.0, 1.0, 0.2, 0.04, and 0.02 μg/ml) was prepared freshly by diluting the stock solution stepwise using ACN-water (70:30, v/v). […] The IS working solutions of 200 ng/ml of tolbutamide or 50 ng/ml of diclofenac sodium were prepared by dilution of the stock standard solution with acetonitrile solution. All the solutions were stored at 4°C and brought to room temperature before use.
# QC samples (3, 40, 800, and 1,600 ng/ml) were prepared separately. For PDG urine samples, the calibration standards were prepared by spiking 5 μL of the appropriate standard working solutions of PDG to 95 μL blank rat urine to prepare the final urine concentration of PDG ranging from 1 ng/ml to 2000 ng/ml. QC samples (3, 40, 800, and 1,600 ng/ml) were prepared separately. […] QC samples (15, 30, 400, and 1,600 ng/ml) were prepared separately.
# Blood samples were collected via orbital venous plexus puncture into heparinized microfuge tubes at intervals of 0, 0.083, 0.25, 0.5, 1, 2, 4, 8, 10, 24, and 30 h after administration. The plasma samples were obtained by centrifuging the blood samples at 6,000 rpm for 10 min at 4°C and storing them at −20°C until further analysis. For the plasma calibration standards, QC plasma samples, and the testing plasma samples, 40 µL of the plasma samples were extracted with 120 µL of IS working solution (tolbutamide) by vortex mixing for 1 min and at 4°C centrifugation for 10 min at 13,000 rpm. The supernatant was separated and evaporated under a gentle stream of nitrogen. The residue was reconstituted with 120 µL of 30% ACN followed by vortex mixing. Then, the solutions were centrifuged at 13,000 rpm for 10 min at 4°C.
# Linear gradient elution was performed with certain portions of 10 mM ammonium acetate-water solution containing 0.1% formic acid (mobile phase A) and methanol (mobile phase B). The detailed conditions have been described in Support Materials (Supplementary Table S5).
# In the ADME properties and pharmacokinetics studies, data are presented as mean ± standard deviation (SD). Statistically significant differences were analyzed by one-way ANOVA or Student’s t-test. The level of significance was set at p < 0.05. The LC/MS/MS data were collected and analyzed by Analyst 1.6.1 (AB Sciex). Pharmacokinetic analyses were performed by non-compartmental methods using Phoenix WinNolin version 6.3 (Pharsight Corporation, Mountain View, CA, United States).
# [6] = male, Sprague-Dawley, IV 5 mg/kg, n = 3
# [7] = male, Sprague-Dawley, PO 40 mg/kg, n = 3
smiles,measurement,setting,value
"COc1cc(C2OCC3C(c4ccc(OC5OC(CO)C(O)C(O)C5O)c(OC)c4)OCC23)ccc1OC1OC(CO)C(O)C(O)C1O (single isomer, unassigned; (+)) [PDG, (+)-1-pinoresinol 4,4′-di-O-β-D-glucopyranoside]",Papp at 18000 s,in vitro [1],0.002 ×10⁻⁶ cm/s
same,Peff,in vitro [1]; 18000 s,"0.02 cm/s, ×10^–7"
same,"fraction unbound at 4 h, 10 µM",[2],0.548
same,"fraction unbound at 4 h, 10 µM",[3],0.623
same,half-life,in vitro [4]; human,16.7 h
same,half-life at 5 µM,in vitro [4]; human,16.7 h
same,microsomal CLint,in vitro [4]; human,1.4 µL/min/mg
same,half-life,in vitro [4]; rat,17.3 h
same,half-life at 5 µM,in vitro [4]; rat,17.3 h
same,microsomal CLint,in vitro [4]; rat,1.3 µL/min/mg
same,bioavailability,"[5]; male, Sprague-Dawley, plasma, rat, from AUClast of IV 5 mg/kg and PO 40 mg/kg, read-out: absolute oral bioavailability (F%)",~0.19%
same,Cmax,"[5]; male, Sprague-Dawley, rat, plasma, iv, 5 mg/kg, IV 5 mg/kg, n = 3, read-out: Cmax",13300 ng/mL
same,Cmax,"[5]; male, Sprague-Dawley, rat, plasma, iv, 5 mg/kg, IV 5 mg/kg, ng/ml value expressed in molar units, read-out: Cmax",19.6 µM
same,Cmax,"[5]; male, Sprague-Dawley, rat, plasma, po, 40 mg/kg, PO 40 mg/kg, n = 3, read-out: Cmax",45.3 ± 37.5 ng/mL
same,Cmax,"[5]; male, Sprague-Dawley, rat, plasma, po, 40 mg/kg, PO 40 mg/kg, ng/ml value expressed in molar units, read-out: Cmax",0.0665 µM
same,AUC(0-t),[5]; [6],7470 ng·h/mL
same,Tmax,[5]; [6],0.1 h
same,AUC(0-inf),[5]; [6],7470 ng·h/mL
same,MRT inf,[5]; [6],0.51 ± 0.09 h
same,AUC(0-t),[5]; [7],113 ± 122 ng·h/mL
same,Tmax,[5]; [7],0.5 h
same,AUC(0-inf),[5]; [7],121 ± 129 ng·h/mL
same,MRT inf,[5]; [7],1.9 ± 0.95 h
same,Cl_pred,"[5]; IV 5 mg/kg, n = 3",0.69 ± 0.15 L/h/kg
same,HL_Lambda_z,"[5]; IV 5 mg/kg, n = 3",2.0 ± 0.5 h
same,Vz_pred,"[5]; IV 5 mg/kg, n = 3",1.98 ± 0.43 L/kg
same,Cmax,"[5]; IV 5 mg/kg, n = 3, 5 mg/kg","13,328.57 ± 1,625.4 ng/ml"
same,Cl_pred,"[5]; PO 40 mg/kg, n = 3",653.9 ± 492.6 L/h/kg
same,Vz_pred,"[5]; PO 40 mg/kg, n = 3",777.0 ± 392.4 L/kg
same,HL_Lambda_z,"[5]; PO 40 mg/kg, n = 3, 40 mg/kg",1.15 h and 1.15 ± 0.75 h
